Experiments:
[1] = test system: BAE/APJ#2 cells (bovine aortic endothelial cells expressing mouse APJ); test: BAE/APJ#2 endothelial cell proliferation (BrdU incorporation); type: cell-based; details: 10 ng/ml, 24 hours, after 48 hours serum starvation
Description: SU1498 was included in proliferation cultures at a concentration of 10 ng/ml and results were assayed using BrdU incorporation. After growth factor incubation, BrdU was added to each well at a final concentration of 10 μM for 2 hours, cells were washed, and fixed for BrdU immunocytochemistry.
Cells were fixed in 100% ice cold methanol at 4° C. for 2 hours to overnight. Prior to staining, cells were air dried and rehydrated for 3 minutes with PBS buffer. DNA was denatured at 37° C. with 2 M HCl, and neutralized with 2 washes for 5 minutes in 0.1 M borate buffer (pH 8.5). […] FITC-labeled anti-BrdU antibody (5 μg/ml) in block was added for 1 hour at room temperature. Cells were counterstained with propidium iodide following several washes in PBS buffer. For each experiment, 4 random fields were photographed for determination of percentage BrdU labeling.

BAE/APJ#2 cells = details: 10 ng/ml in bottom chamber, 16 hours
Description: Bovine aortic endothelial cells (BAE) were cultured in DMEM supplemented with 10% fetal bovine serum (FBS) and penicillin/streptomycin. For generation of stable cell lines expressing APJ, the mouse APJ coding region was cloned into the pcDNA 3.1 vector downstream of the CMV promoter, in frame with a myc epitope at the C-terminal end of the protein, and upstream of the neomycin gene. Bovine aortic endothelial (BAE) cells were transfected with this construction using the Superfect transfection kit (Qiagen) and selected for resistance to G418 (600 μg/ml). Colonies were isolated and screened using RT-PCR for expression of mouse APJ and also by immunocytochemistry for expression of the myc epitope.
Cell migration assays were performed using Transwell cell culture migration chambers (Becton Dickinson) with 8 micron pore size. BAE/APJ#2 cells were plated in serum free conditions in 100 μl at a concentration of 1×10^5 ml in the upper chamber of the migration chamber. Following cell attachment to the membrane, 10 ng/ml of growth factor was added to the bottom chamber, in a total volume of 0.5 ml. […] Cells attached to the membrane in the lower chamber were stained with DAPI, and 3 random fields were counted for each experimental condition.

[2] = test system: mouse endothelial cells (bEnd3); test: bEnd3 endothelial cell proliferation (BrdU incorporation); type: cell-based; details: apelin 10 ng/ml or VEGF 50 ng/ml; 0.1 ng/ml to 1 μg/ml (FIG. 17)
Description: Similar cellular proliferation assays were performed using mouse endothelial cells (bEnd3) that constitutively express APJ. […] SU1498 was included in proliferation cultures at a 25 μM concentration, and results were assayed using BrdU incorporation.
Proliferation inhibition experiments with the bEnd3 cells also were carried out using FGF (50 ng/ml) or the FGF pathway inhibitor SU5402 (FIG. 19). SU5402 was included in proliferation cultures at a 20 μM concentration, and results were assayed using BrdU incorporation.

[3] = test system: lymphatic endothelial cells; test: In vivo lymphatic cell number assay, quail CAM (Prox1 staining); details: collagen disk with 50 ng apelin or 100 ng VEGF-C on CAM of 7 day quail embryos, 18 hours
Description: All experiments were carried out using chorioallantoic membranes (CAMs) of quail embryos. Quail embryos used for the lymphatic experiments were 7 days old. Collagen purified from rat tails (Bernanke and Markwald, 1982) was polymerized in 2 mm disks at a final concentration of approximately 1.6 mg/ml in standard phosphate buffered saline (PBS). The total volume of the collagen disk was approximately 10 μl. For experimental treatments, the collagen disks were supplemented with either 50 ng of apelin peptide or 100 ng of VEGF-C protein prior to polymerization at 37° C. for 30 minutes. The VEGF-C was a positive control for these experiments. (Recombinant Human VEGF-C (Cys156Ser), R&D Systems, cat # 752-vc). Apelin peptide was synthesized by Sigma-Genosys (>90% purity). […]
The samples were incubated with primary antibody (Prox1, Research Diagnostics, cat # RDI-102PA30, diluted to 2 μg/ml final concentration) for 4 hours at room temperature or overnight at 4° C. […] Both the lymphatic cell number as well as the number of lymphatic branches were determined.
Assays for lymphatic cell number were carried out in areas of the CAM that were close to the location of the collagen disk as described above. Since Prox1 specifically stains lymphatic endothelial cell nuclei, the number of cells in the lymphatic branches was counted directly. […]

[4] = test system: SVEC cells (lymphatic endothelial cell line SVEC4-10); details: apelin 10 ng/ml, overnight serum starve, 8 hours of treatment
Description: Cell migration assays as described above were performed with SVEC cells. Apelin was provided at a concentration of 10 ng/ml, and VEGF-C was provided at a concentration of 100 ng/ml.

## Apelin-13
[1]
  endothelial cell proliferation (BrdU labeling): promotes endothelial cell proliferation to a similar extent as VEGF
BAE/APJ#2 cells
  endothelial cell migration (cells per field): promotes endothelial cell migration
[2]
  cellular proliferation of endothelial cells: induces the cellular proliferation of endothelial cells
[3]
  lymphatic cell number (Prox1 positive nuclei): mitogenic factor for lymphatic endothelial cells
[4]
  lymphatic endothelial cell migration: chemotactic agent for lymphatic endothelial cells

— patent US20060159676A1, “Methods for modulating angiogenesis, lymphangiogenesis, and apoptosis with apelin compositions” (priority 2005, published 2006)
